Data on 1 molecule can be found in patent US20220054535A1, “STRONTIUM BASED COMPOSITIONS AND FORMULATIONS FOR PAIN, PRURITUS, AND INFLAMMATION” (STRONTIUM NEUROGENICS INC., priority 2018, published 2022).

One test deals with HSV1. Kind of test: Preliminary investigations on HSV1 symptoms. The test is classed as in vivo. The source says: Without wishing to be bound by any one theory, it is believed that strontium's ability to block NF-Kappa B contributes to minimizing the symptoms associated with an active infection. As mentioned above, HSV 1 and 2 require the activation of NF-Kappa B for de novo virus synthesis. By blocking NF-Kappa B, strontium is essentially stopping the infection at an early stage.

For the next test, the target named is TNF-alpha (Homo sapiens, UniProt P01375). Description: Preliminary investigations on the psoriasis inflammatory/keratinocyte cycle, TNF-alpha. The source says: (§1) The present disclosure is premised on the belief that the psoriatic cycle begins with a triggering event such as trauma, infection, or stress that causes the keratinocytes to become stressed and activates dendritic cells. The dendritic cells release IL-12 and IL-23, which in turn stimulate Th17 and Th1 cells […]. Th17 releases […] which stimulates inflammation. Similarly, Th1 cells release […] which stimulates inflammation. Th1 cells also stimulate keratinocyte division leading to the formation of plaques. The activation of immune cells releases cytokines which also activates keratinocytes. The interaction between the immune system and keratinocyte activation becomes a self-feeding cycle.
Sequence of TNF-alpha (P01375 77-233 limits assumed, species assumed): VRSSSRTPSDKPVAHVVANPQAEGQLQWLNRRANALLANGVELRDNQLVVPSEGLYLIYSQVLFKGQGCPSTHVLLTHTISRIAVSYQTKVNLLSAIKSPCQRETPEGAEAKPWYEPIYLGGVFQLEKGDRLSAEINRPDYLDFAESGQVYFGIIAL
(§2) Applicants' preliminary investigations indicate that strontium can break up the inflammatory/keratinocyte cycle of psoriasis, specifically by blocking the IL-17 and TNF-alpha. By targeting and blocking the two main pathways that activated dendritic cells use to trigger a psoriatic episode, strontium has immense potential as a therapeutic for psoriasis.

The target in the next test is T1, IL-17 (Homo sapiens, UniProt Q16552).
T1 sequence (Q16552 24-155): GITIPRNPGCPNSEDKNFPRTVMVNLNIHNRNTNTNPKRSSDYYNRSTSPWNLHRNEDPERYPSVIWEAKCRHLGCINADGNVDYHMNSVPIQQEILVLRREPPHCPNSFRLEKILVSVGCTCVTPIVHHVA
Description: Preliminary investigations on the psoriasis inflammatory/keratinocyte cycle, IL-17.
From the text: as §1, §2

A further test has as its target TLR-4 (Homo sapiens, UniProt O00206). Description: Preliminary data in atopic dermatitis pathways, TLR-4. The source says:
The present disclosure is premised on the belief that people with atopic dermatitis have higher levels of Staphylococcus aureus on their skin. The higher bacterial levels trigger an immune response via the toll-like receptors, in particular toll-like receptor 4 (TLR-4). The present disclosure is also premised on the belief that continual activation of TLR-4 contributes to the chronic nature of atopic dermatitis.

In test [1] the test system is synchronous neurotransmitter release in response to TCN activation. The conditions noted are these: strontium substitutes for calcium; cited from earlier work.
Test [2] can be described thus: Preliminary investigations on post herpetic neuralgia pain. The test is classed as in vivo.
A further test concerns CICR pathway. As to conditions: cited from earlier work.
A further test has as its system TCN activation. Kind of test: Burning pain and stinging from highly acidic chemical peel (70% glycolic acid, pH 0.6). As to conditions: strontium mixed with the acid (70% glycolic acid, pH 0.6). In kind it is in vivo. Here is the method:
Nociceptors also have a CaSR that inhibits nociceptor activation when the extracellular concentration of calcium is raised above normal, or if a similar concentration of strontium is administered. […] When strontium is mixed with the acid, burning pain and stinging is suppressed by 80% or more so that any remaining sensory irritation is not bothersome.

The next test relates to MMP. Kind of test: Preliminary data in atopic dermatitis pathways, MMP activity. The text has this:
Other molecular pathways activated in atopic dermatitis include matrix metalloproteinases (MMPs). MMPs are a family of enzymes capable of breaking down extracellular matrix proteins, including connective tissues.

The structures appear in SMILES notation.

Sequence of TLR-4 (O00206 24-839, species assumed): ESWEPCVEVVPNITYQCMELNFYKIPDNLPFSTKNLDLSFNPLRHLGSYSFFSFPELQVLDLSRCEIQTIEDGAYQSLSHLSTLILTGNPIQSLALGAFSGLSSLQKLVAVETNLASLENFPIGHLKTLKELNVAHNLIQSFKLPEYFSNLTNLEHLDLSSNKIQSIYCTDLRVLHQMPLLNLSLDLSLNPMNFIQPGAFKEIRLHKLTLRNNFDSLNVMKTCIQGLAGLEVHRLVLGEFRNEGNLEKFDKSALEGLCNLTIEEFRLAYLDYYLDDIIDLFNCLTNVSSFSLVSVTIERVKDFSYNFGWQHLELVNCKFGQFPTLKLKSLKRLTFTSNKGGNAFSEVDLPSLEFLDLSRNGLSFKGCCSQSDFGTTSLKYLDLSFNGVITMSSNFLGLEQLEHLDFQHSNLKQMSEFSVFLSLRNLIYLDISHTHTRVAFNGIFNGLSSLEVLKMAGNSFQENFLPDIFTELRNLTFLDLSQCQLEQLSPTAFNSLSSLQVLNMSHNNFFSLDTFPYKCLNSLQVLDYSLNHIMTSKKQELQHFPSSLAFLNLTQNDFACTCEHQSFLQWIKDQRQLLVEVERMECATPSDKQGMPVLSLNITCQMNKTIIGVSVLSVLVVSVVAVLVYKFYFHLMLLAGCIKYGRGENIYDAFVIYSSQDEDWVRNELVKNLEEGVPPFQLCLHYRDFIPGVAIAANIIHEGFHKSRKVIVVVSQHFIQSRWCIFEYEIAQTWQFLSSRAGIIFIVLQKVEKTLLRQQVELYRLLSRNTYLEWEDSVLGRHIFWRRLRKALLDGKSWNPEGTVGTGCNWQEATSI
Sequence of TLR-4 (Q9Y6Y9 17-160 partner limits assumed, species assumed): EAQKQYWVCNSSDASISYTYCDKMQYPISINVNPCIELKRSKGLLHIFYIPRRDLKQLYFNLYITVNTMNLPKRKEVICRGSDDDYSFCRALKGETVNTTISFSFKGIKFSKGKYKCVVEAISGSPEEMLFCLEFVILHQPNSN

Regarding `[Sr+2]` [strontium, Strontium], in the test with HSV1, the “pain, itch, and rash/blister formation associated with HSV1” value was “can reduce and or eliminate”. At TNF-alpha, the “blocking of TNF-alpha” value is “blocking”. Besides, the “blocking of IL-17” value on IL-17 was “blocking”. On TLR-4, the TLR-4 activity result is listed as “can block”. The “reduction of amplitude of synchronous neurotransmitter release” value in test [1] was “more than 90%”. In addition, the “pain associated with PHN” value in test [2] is given as “can reduce or block”. In addition, the “ability to induce CICR relative to calcium” value in the test on CICR pathway was “over a hundred-fold less active than calcium”. Also, the “concentration reached in the ER, greater than calcium” value with CICR pathway (in the ER) was “more than 150%”. Also, the “suppression of burning pain and stinging” value with TCN activation is at least 80%. Moreover, the MMP activity result in the test with MMP is recorded as “can block”.
